Measured values: patent US10703764B2, “Benzopiperazine compositions as BET bromodomain inhibitors” (FORMA Therapeutics, Inc., priority 2013, dated 2020)
pIC50: −log10 of the molar value.

What was measured:
MV4-11 cells = assay: Oncology cell growth assay (3-day proliferation, CellTiter-Glo); type: cell-based; conditions: Homo sapiens, MV4-11, 72 h, AML cell line MV4-11, 72 hours, compounds grouped by IC50 range, read-out: MV4-11 IC50 (inhibition of proliferation, gIC50)
In short: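 72 h, 37° C, 5% CO2; MV4-11, 3000 cells/well, RPMI 1640 + 10% FBS. Compound final 10, 3.3, 1.1, 0.37, 0.12, 0.041, 0.013, 0.0045 μM. Readout CellTiter-Glo luminescence; gIC50 by 4-parameter logistic fit, normalised to DMSO and no-cell background.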

BRD4 BD1 = biological target: T1, BRD4 BD1 (Homo sapiens, UniProt O60885); assay: AlphaScreen binding assay, BRD4 Bromodomain 1
T1 construct: made in house
In short: (§1)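 Compound dilution series were mixed with His-tagged BRD4 bromodomain and biotinylated tetra-acetylated H4 (1-21) peptide at pH 7.3 (BD1 and peptide at 50 nM, BD2 and peptide at 100 nM). Donor and acceptor beads were then added, and plates were equilibrated at least 1 h before reading. IC50 values were fitted with a four-parameter logistic model.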

BRD4 BD2 = biological target: T2, BRD4 BD2 (Homo sapiens, UniProt O60885); assay: AlphaScreen binding assay, BRD4 Bromodomain 2
T2 construct: made in house
In short: as §1

SMILES | pIC50 (MV4-11 cells) | pIC50 (BRD4 BD1) | pIC50 (BRD4 BD2)
CC(=O)N1c2ccc(-c3ccc(N4CCCC4=O)cc3)cc2N(C(=O)OC2CCOCC2)C[C@@H]1C [Example I-1268] | 6.30 to 7.00 | 6.00 to 7.00 | 6.30 to 7.30
CC(=O)N1c2cc(Br)c(-c3cnn(C4CC4)c3)cc2N(C(=O)OC(C)C)C[C@@H]1C [Example I-209, Isopropyl (S)-4-acetyl-6-bromo-7-(1-cyclopropyl-1H-pyrazol-4-yl)-3-methyl-3,4-dihydroquinoxaline-1(2H)-carboxylate] | < 6.30 | 5.00 to 6.00 | < 6.30
CC(=O)N[C@@H]1CCN(C(=O)c2ccc(-c3ccc4c(c3)N(C(=O)OC(C)C)C[C@H](C)N4C(C)=O)cc2)C1 [Example I-540] | > 7.00 | > 7.00 | > 7.30
CC(=O)N1c2ccc(-c3cnn(Cc4noc(C)n4)c3)cc2N(C(=O)C2CC2)C[C@@H]1C [Example I-668] | 6.30 to 7.00 | 6.00 to 7.00 | 6.30 to 7.30
CC(=O)N1c2ccc(-c3cnn(CC4CCS(=O)(=O)CC4)c3)cc2N(C(=O)OC(C)C)C[C@@H]1C [Example I-595] | 6.30 to 7.00 | 6.00 to 7.00 | 6.30 to 7.30
CC(C)OC(=O)N1C[C@H](C)N(C(=O)C2CC2)c2ccc(-c3cnn(C4CCOCC4)c3)cc21 [Example I-313] | 6.30 to 7.00 | 6.00 to 7.00 | 6.30 to 7.30
CC(=O)N1c2ccc(-c3cccc(S(N)(=O)=O)c3)cc2N(C(=O)c2ccco2)C[C@@H]1C [Example I-841] | 6.30 to 7.00 | 5.00 to 6.00 | > 7.30
CC(=O)N1c2ccc(-c3ccc4c(c3)N(C)S(=O)(=O)N4)cc2N(C(=O)C2CCC2)C[C@@H]1C [Example I-1176] | < 6.30 | 6.00 to 7.00 | > 7.30
CC(=O)N1c2ccc(-c3cnc(N)cn3)cc2N(C(=O)OC(C)C)C[C@@H]1C [Example I-471] | 6.30 to 7.00 | 6.00 to 7.00 | 6.30 to 7.30
CCCS(=O)(=O)c1ccc(-c2ccc3c(c2)N(C(=O)OCC)C[C@H](C)N3C(C)=O)cc1 [Example I-1072] | 6.30 to 7.00 | 6.00 to 7.00 | 6.30 to 7.30
COC(=O)N1c2ccc(-c3ccc(C(=O)N4CC(O)C4)cc3)cc2N(C(=O)OC(C)C)C[C@@H]1C [Example I-579] | 6.30 to 7.00 | 6.00 to 7.00 | 6.30 to 7.30
CC(=O)N1c2ccc(-c3ccc(S(C)(=O)=O)cc3)cc2N(C(=O)OC2CC(F)(F)C2)C[C@@H]1C [Example I-5, (S)-3,3-difluorocyclobutyl 4-acetyl-3-methyl-7-(4-(methylsulfonyl)phenyl)-3,4-dihydroquinoxaline-1(2H)-carboxylate] | 6.30 to 7.00 | 6.00 to 7.00 | 6.30 to 7.30
CC(=O)N1c2cc(C(N)=O)c(-c3cnn(C4CC4)c3)cc2N(C(=O)OC(C)C)C[C@@H]1C [Example I-212, Isopropyl (S)-4-acetyl-6-carbamoyl-7-(1-cyclopropyl-1H-pyrazol-4-yl)-3-methyl-3,4-dihydroquinoxaline-1(2H)-carboxylate] | 6.30 to 7.00 | 6.00 to 7.00 | 6.30 to 7.30
CCS(=O)(=O)Nc1ccc(-c2ccc3c(c2)N(C(=O)OC2CCOCC2)C[C@H](C)N3C(C)=O)cc1 [Example I-1270] | 6.30 to 7.00 | 6.00 to 7.00 | 6.30 to 7.30
CC(=O)N1c2ccc(-c3cnn(C4CCCS(=O)(=O)C4)c3)cc2N(C(=O)OC2CCCCC2)C[C@@H]1C (stereo partly drawn) [Example I-1312] | 6.30 to 7.00 | 6.00 to 7.00 | > 7.30
CCOC(=O)N1C[C@H](C)N(C(C)=O)c2ccc(-c3cnn(C4CC4)c3)cc21 [Example I-21, (S)-ethyl 4-acetyl-7-(1-cyclopropyl-1H-pyrazol-4-yl)-3-methyl-3,4-dihydroquinoxaline-1(2H)-carboxylate] | 6.30 to 7.00 | 6.00 to 7.00 | 6.30 to 7.30
CC(=O)N1c2ccc(-c3cnn(C4COC4)c3)cc2N(C(=O)OCCC(F)(F)F)C[C@@H]1C [Example I-69, (S)-3,3,3-trifluoropropyl 4-acetyl-3-methyl-7-(1-(oxetan-3-yl)-1H-pyrazol-4-yl)-3,4-dihydroquinoxaline-1(2H)-carboxylate] | 6.30 to 7.00 | > 7.00 | > 7.30
CC(=O)N1c2cc(C#N)c(-c3cnn(C4CC4)c3)cc2N(C(=O)OC(C)C)C[C@@H]1C [Example I-211, Isopropyl (S)-4-acetyl-6-cyano-7-(1-cyclopropyl-1H-pyrazol-4-yl)-3-methyl-3,4-dihydroquinoxaline-1(2H)-carboxylate] | < 6.30 | 6.00 to 7.00 | < 6.30
CC(=O)N1c2ccc(-c3ccc4cnccc4c3)cc2N(C(=O)c2ccco2)C[C@@H]1C [Example I-864] | 6.30 to 7.00 | 6.00 to 7.00 | 6.30 to 7.30
CC(=O)N1c2ccc(-c3ccc4nccn4n3)cc2N(C(=O)c2ccco2)C[C@@H]1C [Example I-398] | 6.30 to 7.00 | 6.00 to 7.00 | 6.30 to 7.30

SMILES | pIC50 (MV4-11 cells) | pIC50 (BRD4 BD1) | pIC50 (BRD4 BD2)
CC(=O)N1c2ccc(-c3cnn(C4CCOCC4)c3)cc2N(C(=O)OC2CCOCC2)C[C@@H]1C [Example I-38, (S)-tetrahydro-2H-pyran-4-yl 4-acetyl-3-methyl-7-(1-(tetrahydro-2H-pyran-4-yl)-1H-pyrazol-4-yl)-3,4-dihydroquinoxaline-1(2H)-carboxylate] | 6.30 to 7.00 | 6.00 to 7.00 | 6.30 to 7.30
CC(C)OC(=O)N1C[C@H](C)N(C(=O)C2CC2)c2ccc(-c3cnn(CCC(N)=O)c3)cc21 [Example I-621] | < 6.30 | 6.00 to 7.00 | 6.30 to 7.30
CC(=O)N1c2ccc(-c3ccc(N4CCOCC4)cc3)cc2N(C(=O)OC2CCOCC2)C[C@@H]1C [Example I-1230] | 6.30 to 7.00 | 6.00 to 7.00 | 6.30 to 7.30
CC(=O)N1c2ccc(-c3ccc(N4CCOCC4)cc3)cc2N(C(=O)C2CC2)C[C@@H]1C [Example I-1058] | 6.30 to 7.00 | 5.00 to 6.00 | 6.30 to 7.30
CC(=O)N1c2ccc(-c3cccc(S(=O)(=O)N(C)C)c3)cc2N(C(=O)OC2CCCCC2)C[C@@H]1C [Example I-1223] | 6.30 to 7.00 | 6.00 to 7.00 | 6.30 to 7.30
C[C@H]1CN(C(=O)c2ccco2)c2cc(-c3ccc(S(C)(=O)=O)cc3)ccc2N1C(=O)C1CC1 [Example I-364] | 6.30 to 7.00 | 6.00 to 7.00 | > 7.30
COc1ccc(-c2ccc3c(c2)N(C(=O)C2CC2)C[C@H](C)N3C(C)=O)cc1NS(C)(=O)=O [Example I-1139] | 6.30 to 7.00 | 5.00 to 6.00 | 6.30 to 7.30
CC(=O)N1c2ccc(-c3nnc(N)s3)cc2N(C(=O)c2ccco2)C[C@@H]1C [Example I-430] | 6.30 to 7.00 | 5.00 to 6.00 | 6.30 to 7.30
CC(=O)N1c2ccc(-c3cnn(CC4(C)COC4)c3)cc2N(C(=O)OC(C)C)C[C@@H]1C [Example I-605] | 6.30 to 7.00 | 6.00 to 7.00 | 6.30 to 7.30
CCOC(=O)N1C[C@H](C)N(C(C)=O)c2ccc(-c3ccc(N4CCOCC4)cc3)cc21 [Example I-1060] | < 6.30 | 5.00 to 6.00 | 6.30 to 7.30
CC(=O)N1c2ccc(-c3ccc(C(=O)N4CCCC[C@@H]4CN)cc3)cc2N(C(=O)OC(C)C)C[C@@H]1C [Example I-591] | 6.30 to 7.00 | 6.00 to 7.00 | 6.30 to 7.30
CC(=O)N1c2ccc(-c3cnn(C4CS(=O)(=O)C4)c3)cc2N(C(=O)OC2CCCC2)C[C@@H]1C [Example I-1307] | 6.30 to 7.00 | 6.00 to 7.00 | > 7.30
CC(=O)N1c2ccc(-c3cnn(CC(C)(C)O)c3)cc2N(C(=O)OC2CCC(F)(F)CC2)C[C@@H]1C [Example I-35, (S)-4,4-difluorocyclohexyl 4-acetyl-7-(1-(2-hydroxy-2-methylpropyl)-1H-pyrazol-4-yl)-3-methyl-3,4-dihydroquinoxaline-1(2H)-carboxylate] | 6.30 to 7.00 | 6.00 to 7.00 | 6.30 to 7.30
CC(=O)N1c2ccc(-c3cc(Cl)cc(S(C)(=O)=O)c3)cc2N(C(=O)OC(C)C)C[C@@H]1C [Example I-1097] | < 6.30 | 5.00 to 6.00 | < 6.30
CNS(=O)(=O)c1ccc(-c2ccc3c(c2)N(C(=O)C2CC2)C[C@H](C)N3C(C)=O)cc1 [Example I-1119] | 6.30 to 7.00 | 5.00 to 6.00 | 6.30 to 7.30
CC(=O)N1c2cc(C#N)c(-c3ccc(S(C)(=O)=O)cc3)cc2N(C(=O)OC(C)C)C[C@@H]1C [Example I-219, Isopropyl (S)-4-acetyl-6-cyano-3-methyl-7-(4-(methylsulfonyl)phenyl)-3,4-dihydroquinoxaline-1(2H)-carboxylate] | < 6.30 | 5.00 to 6.00 | < 6.30
CC(=O)N1c2ccc(-c3ccc(S(=O)(=O)C4CC4)cc3)cc2N(C(=O)C2CCC2)C[C@@H]1C [Example I-1032] | 6.30 to 7.00 | 5.00 to 6.00 | 6.30 to 7.30
CC(=O)N1c2ccc(-c3ccc(S(=O)(=O)NCCO)cc3)cc2N(C(=O)OC(C)C)C[C@@H]1C [Example I-1038] | 6.30 to 7.00 | 6.00 to 7.00 | 6.30 to 7.30
CC(=O)N1c2ccc(-c3cnn(C4CC4)c3)cc2N(C(=O)Oc2cccc3ccc(C)nc23)C[C@@H]1C [Example I-515] | > 7.00 | 6.00 to 7.00 | 6.30 to 7.30
CC(=O)N1c2ccc(-c3ccc(S(=O)(=O)CCO)cc3)cc2N(C(=O)c2ccco2)C[C@@H]1C [Example I-423] | 6.30 to 7.00 | 5.00 to 6.00 | 6.30 to 7.30
